Data published in US20210145000A1, “WEED CONTROL FROM APPLICATIONS OF PYRIDINE CARBOXYLIC ACID HERBICIDES AND ACETYL CoA CARBOXYLASE (ACCase) INHIBITORS” (Dow AgroSciences LLC, priority 2018, published 2021).

What was measured:
Assay in all cases: Postemergence herbicidal activity, greenhouse, visual injury
Type in all cases: in vivo
[1] = system: barnyardgrass (Echinochloa crus-galli, ECHCG); conditions: post-emergence, read-out: Effect (% visual injury) Obs
Experimental: (§1) The plants were grown for 7-36 days (d) in a greenhouse with an approximate 14-hour (h) photoperiod which was maintained at about 23° C. during the day and 22° C. during the night. Nutrients and water were added on a regular basis and supplemental lighting was provided with overhead metal halide 1000-Watt lamps as necessary. The plants were employed for testing when they reached the second or third true leaf stage.
(§2) Spray solutions of the experimental compound mixtures were prepared by adding the stock solutions to the appropriate amount of dilution solution to form a 12 mL spray solution in two-way combinations. […] Control plants were sprayed in the same manner with the solvent blank. Application rates for component (a) are in g ae/ha, and application rates for component (b) are in g ai/ha.
(§3) The treated plants and control plants were placed in a greenhouse as described above and watered by sub-irrigation to prevent wash-off of the test compounds. After 20-22 d, the condition of the test plants as compared with that of the control plants was determined visually and scored on a scale of 0 to 100 percent where 0 corresponds to no injury and 100 corresponds to complete kill. […] The Colby method was used to determine the herbicidal effects expected from the mixtures.

[2] = system: blackgrass (Alopecurus myosuroides, ALOMY); conditions: post-emergence, read-out: Effect (% visual injury) Obs
Experimental: as §1, §2, §3

[3] = system: common lambsquarters (Chenopodium album L., CHEAL); conditions: post-emergence, read-out: Effect (% visual injury) Obs
Experimental: as §1, §2, §3

[4] = system: giant foxtail (Setaria faberi, SETFA); conditions: post-emergence, read-out: Effect (% visual injury) Obs
Experimental: as §1, §2, §3

[5] = system: large crabgrass (Digitaria sanguinalis, DIGSA); conditions: post-emergence, read-out: Effect (% visual injury) Obs
Experimental: as §1, §2, §3

maize (Zea mays, ZEAMX) = conditions: post-emergence, read-out: Effect (% visual injury) Obs
Experimental: as §1, §2, §3

[6] = system: pigweed (Amaranthus retroflexus, AMARE); conditions: post-emergence, read-out: Effect (% visual injury) Obs
Experimental: as §1, §2, §3

[7] = system: rice (Oryza sativa, ORYSA); conditions: post-emergence, read-out: Effect (% visual injury) Obs
Experimental: as §1, §2, §3

[8] = system: soybean (Glycine max, GLXMA); conditions: post-emergence, read-out: Effect (% visual injury) Obs
Experimental: as §1, §2, §3

[9] = system: sunflower (Helianthus annuus, HELAN); conditions: post-emergence, read-out: Effect (% visual injury) Obs
Experimental: as §1, §2, §3

[10] = system: velvetleaf (Abutilon theophrasti, ABUTH); conditions: post-emergence, read-out: Effect (% visual injury) Obs
Experimental: as §1, §2, §3

[11] = system: wild buckwheat (Polygonum convolvulus, POLCO); conditions: Fallopia convolvulus, post-emergence, read-out: Effect (% visual injury) Obs
Experimental: as §1, §2, §3

[12] = system: wild oat (Avena fatua, AVEFA); conditions: post-emergence, read-out: Effect (% visual injury) Obs
Experimental: as §1, §2, §3

[13] = system: wild pansy (Viola tricolor, VIOTR); conditions: post-emergence, read-out: Effect (% visual injury) Obs
Experimental: as §1, §2, §3

[14] = system: winter wheat (Triticum aestivum, TRZAW); conditions: post-emergence, read-out: Effect (% visual injury) Obs
Experimental: as §1, §2, §3

[15] = system: chickweed (Stellaria media, STEME); conditions: post-emergence, read-out: Effect (% visual injury) Obs
Experimental: (§4) Seeds of the desired test plant species were planted in Sun Gro MetroMix® 306 planting mixture, which typically has a pH of 6.0 to 6.8 and an organic matter content of about 30 percent, in plastic pots with a surface area of 103.2 square centimeters (cm^2). When required to ensure good germination and healthy plants, a fungicide treatment and/or other chemical or physical treatment was applied. The plants were grown for 7-36 days (d) in a greenhouse with an approximate 14-hour (h) photoperiod which was maintained at about 23° C. during the day and 22° C. during the night. Nutrients and water were added on a regular basis and supplemental lighting was provided with overhead metal halide 1000-Watt lamps as necessary. The plants were employed for testing when they reached the second or third true leaf stage.
(§5) An emulsifiable concentrate (EC) formulation containing Compound 1 at 100 gai/L was prepared by combining Compound 1 with 1-butyl-2-pyrrolidinone (Tamisolve NxG; 360.5 g/L), benzyl acetate (544.6 g/L) and Agnique MBL 520L surfactant (52.9 g/L). […] The concentrated stock solution was diluted with an aqueous mixture of 1.5% v/v of Agri-dex crop oil concentrate to provide the appropriate application rates. Compound requirements are based upon a 12 milliliter (mL) application volume at a rate of 187 liters per hectare (L/ha). Spray solutions of the experimental compound mixtures were prepared by adding the stock solutions to the appropriate amount of dilution solution to form a 12 mL spray solution in two-way combinations. Formulated compounds were applied to the plant material with an overhead Mandel track sprayer equipped with 8002E nozzles calibrated to deliver 187 L/ha over an application area of 0.503 square meters (m^2) at a spray height of 18 inches (43 centimeters (cm)) above average plant canopy. Control plants were sprayed in the same manner with the solvent blank. Application rates for component (a) are in g ae/ha, and application rates for component (b) are in g ai/ha.
as §3

[16] = system: kochia (Kochia scoparia, KCHSC); conditions: Clethodim 70 g ai/ha
Experimental: as §4, §5, §3

[17] = system: poinsettia (Euphorbia heterophylla, EPHHL); conditions: Clethodim 70 g ai/ha
Experimental: as §4, §5, §3

[18] = system: winter rape (Brassica napus, BRSNW); conditions: post-emergence, read-out: Effect (% visual injury) Obs
Experimental: as §4, §5, §3

[19] = system: grain sorghum (Sorghum vulgare, SORVU); conditions: post-emergence, read-out: Effect (% visual injury) Obs
Experimental: as §1, §2, §3

`CCSC(C)CC1CC(=O)C(C(CC)=NOC/C=C/Cl)=C(O)C1` (stereo not shown) [Clethodim] was tested, and the pest or weed control at 70 g/ha [1] was 100%, the pest or weed control at 70 g/ha [2] was 93% and the pest or weed control at 70 g/ha [3] was 5%. For the same compound, the pest or weed control at 70 g/ha [4] was 85%, the pest or weed control at 70 g/ha [5] was 70% and the plant injury at 70 g/ha (maize (Zea mays, ZEAMX)) was 100%. It also gave a pest or weed control at 70 g/ha [6] of 5%, a plant injury at 70 g/ha [7] of 90% and a plant injury at 70 g/ha [8] of 10%. For the same compound, the plant injury at 70 g/ha [9] was 0%, the pest or weed control at 70 g/ha [10] was 0% and the pest or weed control at 70 g/ha [11] was 10%. It also gave a pest or weed control at 70 g/ha [12] of 97%, a pest or weed control at 70 g/ha [13] of 5% and a plant injury at 70 g/ha [14] of 70%. The pest or weed control at 70 g/ha [15] was 10%, the “Effect (% visual injury) Obs” value [16] was 0% and the “Effect (% visual injury) Obs” value [17] was 30%. For the same compound, the plant injury at 70 g/ha [18] was 5%.

For `CCCCOC(=O)[C@@H](C)Oc1ccc(Oc2ccc(C#N)cc2F)cc1` [Cyhalofop-butyl], the pest or weed control at 180 g/ha [1] was 100%, the pest or weed control at 180 g/ha [4] was 90% and the plant injury at 180 g/ha [19] was 95%. The pest or weed control at 180 g/ha [5] was 85%, the plant injury at 180 g/ha (maize (Zea mays, ZEAMX)) was 95% and the pest or weed control at 180 g/ha [6] was 0%. It also gave a plant injury at 180 g/ha [7] of 0%, a plant injury at 180 g/ha [9] of 0% and a pest or weed control at 180 g/ha [10] of 0%. It also gave a pest or weed control at 180 g/ha [11] of 0%, a pest or weed control at 180 g/ha [12] of 90% and a pest or weed control at 180 g/ha [13] of 0%. It also gave a plant injury at 180 g/ha [14] of 0% and a plant injury at 180 g/ha [18] of 0%.

With `COC(=O)C(C)Oc1ccc(Oc2ccc(Cl)cc2Cl)cc1` (stereo not shown) [Diclofop-methyl] the pest or weed control at 280 g/ha [1] was 100%, the pest or weed control at 280 g/ha [3] was 0% and the pest or weed control at 280 g/ha [4] was 60%. It also gave a pest or weed control at 280 g/ha [6] of 0%, a plant injury at 280 g/ha [7] of 40% and a plant injury at 280 g/ha [9] of 0%. The pest or weed control at 280 g/ha [10] was 0%, the pest or weed control at 280 g/ha [11] was 0% and the pest or weed control at 280 g/ha [13] was 0%. It also gave a plant injury at 280 g/ha [14] of 0%, a pest or weed control at 280 g/ha [15] of 0% and a plant injury at 280 g/ha [18] of 0%.

Compound `CCOC(=O)[C@@H](C)Oc1ccc(Oc2nc3ccc(Cl)cc3o2)cc1` [Fenoxaprop-P-ethyl] has a pest or weed control at 46 g/ha ([1]; Fenoxaprop-P-ethyl 46 g ai/ha) of 100%, a pest or weed control at 46 g/ha ([2]; Fenoxaprop-P-ethyl 46 g ai/ha) of 0% and a pest or weed control at 46 g/ha ([3]; Fenoxaprop-P-ethyl 46 g ai/ha) of 0%. For the same compound, the pest or weed control at 46 g/ha ([4]; Fenoxaprop-P-ethyl 46 g ai/ha) was 100%, the pest or weed control at 46 g/ha ([5]; Fenoxaprop-P-ethyl 46 g ai/ha) was 100% and the plant injury at 46 g/ha (maize (Zea mays, ZEAMX); Fenoxaprop-P-ethyl 46 g ai/ha) was 100%. For the same compound, the plant injury at 46 g/ha ([9]; Fenoxaprop-P-ethyl 46 g ai/ha) was 0%, the pest or weed control at 46 g/ha ([10]; Fenoxaprop-P-ethyl 46 g ai/ha) was 0% and the pest or weed control at 46 g/ha ([11]; Fenoxaprop-P-ethyl 46 g ai/ha) was 0%. The pest or weed control at 46 g/ha ([12]; Fenoxaprop-P-ethyl 46 g ai/ha) was 95%, the pest or weed control at 46 g/ha ([13]; Fenoxaprop-P-ethyl 46 g ai/ha) was 0% and the plant injury at 46 g/ha ([14]; Fenoxaprop-P-ethyl 46 g ai/ha) was 0%. For the same compound, the plant injury at 46 g/ha ([18]; Fenoxaprop-P-ethyl 46 g ai/ha) was 0%.
